Experimental data from BindingDB's records for doi:10.7270/Q2CV4KX9 (n/a, 1995).

Experiment: Binding affinity was measured by its ability to displace [3H]CCK-8S from CCK-B receptor in guinea pig brain
With `CC(C)CCN1C(=O)C(NC(=O)Nc2ccccc2)C(=O)N(c2ccccc2)c2ccc(F)cc21` (stereo not given) the Ki was < 1000 nM. Molecule `CC(C)CCN1C(=O)C(NC(=O)Nc2ccccc2)C(=O)N(c2ccccc2)c2ccc(Cl)cc21` (stereo not given) has a Ki of 955 nM. Molecule `CC(C)CCN1C(=O)C(NC(=O)Nc2ccccc2)C(=O)N(c2ccccc2)c2cc(Cl)c(Cl)cc21` (stereo not given) has a Ki of 1580 nM. For `CC(C)CCN1C(=O)C(NC(=O)Nc2ccccc2)C(=O)N(c2ccccc2)c2cc(F)ccc21` (stereo not given), the Ki was 224 nM. `CC(C)CCN1C(=O)C(NC(=O)Nc2ccccc2)C(=O)N(c2ccccc2)c2cc(Cl)ccc21` (stereo not given) showed a Ki of 955 nM.
